In brackets after ≈: the same amount, converted by molar mass.
Key:
Experiment in all cases: MIC (YAG medium)
Format in all cases: cell-based
Aspergillus flavus = details: YAG medium, MIC banded into grades; for MIC: Aspergillus flavus, read-out: MIC A. flavus (grade)
Protocol: (§1) Between 1 and 5 mgs of compound were accurately weighed out into a sterile Eppendorf tube. The compound was dissolved in DMSO to give a solution containing 5 mg/mL. Tubes were stored at −20° C. until required.
(§2) On the day of testing thawed solutions were vortex mixed to ensure homogeneity. 30 μL of solution was removed and added to 570 μL of sterile water in a separate sterile Eppendorf The thoroughly mixed solution was used to prepare a series of doubling dilutions in water, in a deep well plate. […] replicate plates were prepared using a Minitrak by aspirating 20 μL from each well into eleven clear polystyrene 96 well plates.
(§3) Spores of Aspergillus spp. (Aspergillus fumigatus [two strains], Aspergillus terreus [two strains], Aspergillus niger and Aspergillus flavus) were harvested from cultures grown on Sabarauds agar for 5 days, and resuspended in PBS/Tween 80 to approx 1×10^7 cfu/mL. Other filamentous fungi (Absidia corymbifera, Fusarium solani, Rhizomucor, Scedosporium spp., Trichophyton spp.), were grown on Sabarauds agar for 2-10 days and spores/hyphae resuspended in PBS/Tween to give approx 1×10^7 cfu/mL. Candida species (Candida albicans, Candida glabrata, Candida krusei, Candida parapsilosis and Candida tropicalis) were grown on Sabarauds agar, cells were harvested from the agar using a sterile loop and resuspended in PBS/Tween 80 to approx 1×10^6 cfu/mL. Each organism suspension was diluted in RPMI medium, containing 2% glucose and 0.135 M MOPS buffer (pH 7.0) to 0.5−2×10^4 cfu/mL for Aspergillus spp. and other filamentous fungi and 0.5-2×10^3 cfu/mL for yeast. 80 μL of an organism suspension was added to each well of the plate containing drug dilutions.
(§4) This produced MIC plates with a drug range 50-0.05 mg/L and organism inocula of 1-2×10^4 cfu/mL for Aspergillus spp. and other filamentous fungi and 1-2×10^3 cfu/mL for yeasts. All plates were incubated for 24-48 hrs at 35° C. Growth was assessed by monitoring the optical density at 485 nm for each well. The MIC of a compound is the lowest drug concentration that inhibits growth of an organism by >80% compared with a drug free control. MICs are recorded as mg/L. Other growth media can be used for susceptibility testing, and the activity of the described compounds can also be assessed in a medium comprising 1% glucose, 1% ammonium chloride and 0.5% yeast extract (YAG medium). To perform MIC tests in this medium, dilutions of compounds are prepared in microtitre plates as described above. Fungal strains to be tested are grown and harvested in an identical manner to that described above, each organism suspension is then diluted in YAG medium to 0.5-2×10^4 cfu/mL for Aspergillus spp. and other filamentous fungi and 0.5-2×10^3 cfu/mL for yeast. 80 μL of an organism suspension was added to each well of the plate containing drug dilutions. This produced MIC plates with a drug range 50-0.05 mg/L and organism inocula of 1-2×10^4 cfu/mL for Aspergillus spp. and other filamentous fungi and 1-2×10^3 cfu/mL for yeasts. All plates were incubated for 24 hrs at 35° C. Growth was assessed by monitoring the optical density at 485 nm for each well. The MIC of a compound is the lowest drug concentration that inhibits growth of an organism by >70% compared with a drug free control. MICs are recorded as mg/L. In cases where the MIC of an organism is […] mg/L the MIC is repeated using a concentration range of 0.5-0.0005 mg/L. MIC tests in YAG medium have more clear-cut endpoints and have slightly lower MICs than those performed in RPMI medium.
(§5) The following organisms were tested: Absidia corymbifera, Aspergillus flavus, Aspergillus fumigatus AF293 and AF210, Aspergillus niger, Aspergillus terreus AT4 and AT49, Candida albicans, Candida glabrata, Candida krusei, Candida parapsilosis, Candida tropicalis, Fusarium solani, Rhizomucor sp., Scedosporium apiospermum, Scedosporium prolificans, Trichophyton mentagrophytes, and Trichophyton rubrum.

[1] = test system: Aspergillus fumigatus AF210; details: YAG medium, MIC banded into grades, AF210; for MIC: Aspergillus fumigatus, read-out: MIC A. fumigatus 210 (grade)
Protocol: as §1, §2, §3, §4, §5

[2] = test system: Aspergillus fumigatus AF293; details: YAG medium, MIC banded into grades, AF293; for MIC: Aspergillus fumigatus, read-out: MIC A. fumigatus (grade)
Protocol: as §1, §2, §3, §4, §5

Aspergillus niger = details: YAG medium, MIC banded into grades; for MIC: Aspergillus niger, read-out: MIC A. niger (grade)
Protocol: as §1, §2, §3, §4, §5

Aspergillus terreus AT49 = details: YAG medium, MIC banded into grades, AT49; for MIC: Aspergillus terreus, read-out: MIC A. terreus 49 (grade)
Protocol: as §1, §2, §3, §4, §5

Aspergillus terreus AT4 = details: YAG medium, MIC banded into grades, AT4; for MIC: Aspergillus terreus, read-out: MIC A. terreus (grade)
Protocol: as §1, §2, §3, §4, §5

Molecule	MIC (Aspergillus flavus) [µg/mL]	MIC [1] [µg/mL]	MIC [2] [µg/mL]	MIC (Aspergillus niger) [µg/mL]	MIC (Aspergillus terreus AT49) [µg/mL]	MIC (Aspergillus terreus AT4) [µg/mL]	MIC A. flavus (grade) (Aspergillus flavus)	MIC A. fumigatus 210 (grade) [1]	MIC A. fumigatus (grade) [2]	MIC A. niger (grade) (Aspergillus niger)	MIC A. terreus 49 (grade) (Aspergillus terreus AT49)	MIC A. terreus (grade) (Aspergillus terreus AT4)
Cc1cc(C)nc(OCCOc2ccc(NC(=O)C(=O)c3c(-c4ccccc4)cc4ccccn34)cc2)c1 [Example 65, N-{4-[2-(4,6-Dimethyl-pyridin-2-yloxy)-ethoxy]-phenyl}-2-oxo-2-(2-phenyl-indolizin-3-yl)-acetamide]	< 1	< 1	< 1	< 1	< 1	< 1	–	–	–	–	–	–
O=C(Nc1ccc(N2CCN(c3ccc(CN4CCOCC4)cc3)CC2)cc1)C(=O)c1c(-c2ccccc2)cc2ccccn12 [Example 56, N-{4-[4-(4-Morpholin-4-ylmethyl-phenyl)-piperazin-1-yl]-phenyl}-2-oxo-2-(2-phenyl-indolizin-3-yl)-acetamide]	< 1	< 1	< 1	< 1	< 1	< 1	–	–	–	–	–	–
Cc1cc(C)nc(NCCN(C)c2ccc(NC(=O)C(=O)c3c(-c4ccccc4)cc4ccccn34)cc2)c1 [Example 69, N-(4-{[2-(4,6-dimethyl-pyridin-2-ylamino)-ethyl]-methyl-amino}-phenyl)-2-oxo-2-(2-phenyl-indolizin-3-yl)-acetamide]	< 1	< 1	< 1	< 1	< 1	< 1	–	–	–	–	–	–
Cc1cc(C)nc(N(C)CCOc2ccc(NC(=O)C(=O)c3c(-c4ccccc4)cc4ccccn34)cc2)c1 [Example 64, N-(4-{2-[(4,6-Dimethyl-pyridin-2-yl)-methyl-amino]-ethoxy}-phenyl)-2-oxo-2-(2-phenyl-indolizin-3-yl)-acetamide]	< 1	< 1	< 1	< 1	< 1	< 1	–	–	–	–	–	–
CCOCCN(C1=NC(C)(C)CO1)c1ccc(NC(=O)C(=O)c2c(-c3ccccc3)cc3ccccn23)cc1 [Example 28]	–	–	–	–	–	–	2 (A grade of 2 represents an MIC of from 1 to 10)	2 (A grade of 2 represents an MIC of from 1 to 10)	2 (A grade of 2 represents an MIC of from 1 to 10)	3 (A grade of 3 represents an MIC of less than 1 mg/L)	2 (A grade of 2 represents an MIC of from 1 to 10)	2 (A grade of 2 represents an MIC of from 1 to 10)
Cc1cc(C)nc(NCCNc2ccc(NC(=O)C(=O)c3c(-c4ccccc4)cc4ccccn34)cc2)c1 [Example 92, N-{4-[2-(4,6-dimethyl-pyridin-2-yl-amino)-ethylamino]-phenyl}-2-oxo-2-(2-phenyl-indolizin-3-yl)-acetamide]	< 1	< 1	< 1	1 to 10 (≈ 1.99 to 19.9 µM)	< 1	< 1	–	–	–	–	–	–
O=C(Nc1ccc(N2CCN(c3ccccn3)CC2)cc1)C(=O)c1c(-c2ccccc2)cc2ccc(F)cn12 [Example 42, 2-(6-Fluoro-2-phenyl-indolizin-3-yl)-2-oxo-N-[4-(4-pyridin-2-yl-piperazin-1-yl)phenyl] acetamide]	–	–	–	–	–	–	3 (A grade of 3 represents an MIC of less than 1 mg/L)	3 (A grade of 3 represents an MIC of less than 1 mg/L)	3 (A grade of 3 represents an MIC of less than 1 mg/L)	3 (A grade of 3 represents an MIC of less than 1 mg/L)	3 (A grade of 3 represents an MIC of less than 1 mg/L)	3 (A grade of 3 represents an MIC of less than 1 mg/L)
Cc1cc(C)nc(N2CCN(c3ccc(NC(=O)C(=O)c4c(C5CC5)cc5ccccn45)cc3)CC2)c1 [Example 58, 2-(2-Cyclopropyl-indolizin-3-yl)-N-{4-[4-(4,6-dimethyl-pyridin-2-yl)-piperazin-1-yl]-phenyl}-2-oxo-acetamide]	< 1	< 1	< 1	< 1	< 1	< 1	–	–	–	–	–	–
O=C(Nc1ccc(N2CCN(S(=O)(=O)c3cccnc3)CC2)cc1)C(=O)c1c(-c2ccccc2)cc2ccccn12 [Example 51, 2-Oxo-2-(2-phenyl-indolizin-3-yl)-N-{4-[4-(pyridine-3-sulfonyl)-piperazin-1-yl]-phenyl}-acetamide]	< 1	< 1	< 1	< 1	< 1	< 1	–	–	–	–	–	–
2-Oxo-2-(2-phenyl-indolizin-3-yl)-N-{4-[4-(2-pyridin-yl-ethyl)-perazin-1-yl]-phenyl}-acetamide [Example 36]	–	–	–	–	–	–	3 (A grade of 3 represents an MIC of less than 1 mg/L)	3 (A grade of 3 represents an MIC of less than 1 mg/L)	3 (A grade of 3 represents an MIC of less than 1 mg/L)	3 (A grade of 3 represents an MIC of less than 1 mg/L)	3 (A grade of 3 represents an MIC of less than 1 mg/L)	3 (A grade of 3 represents an MIC of less than 1 mg/L)
O=C(Nc1ccc(-c2cocn2)cc1)C(=O)c1c(-c2ccc(-c3ccccc3)cc2)cc2ccccn12 [Example 85, 2-(2-Biphenyl-4-yl-indolizin-3-yl)-N-(4-oxazol-4-yl-phenyl)-2-oxo-acetamide]	< 1	> 10	> 10	> 10	< 1	< 1	–	–	–	–	–	–
Cc1cc(C)nc(CNc2ccc(NC(=O)C(=O)c3c(-c4ccccc4)cc4ccccn34)cc2)c1 [Example 91, N-{4-[(4,6-Dimethyl-pyridin-2-ylmethyl)-amino]-phenyl}-2-oxo-2-(2-phenyl-indolizin-3-yl)-acetamide]	< 1	< 1	< 1	< 1	< 1	< 1	–	–	–	–	–	–
CN1CCN(c2ccc(NC(=O)C(=O)c3c(-c4ccccc4)cc4ccccn34)cc2-c2ncco2)CC1 [Example 19, N-[4-(4-methyl-piperazin-1-yl)-3-oxazol-2-yl-phenyl]-2-oxo-2-(2-phenyl-indolizin-3-yl)-acetamide]	> 10	> 10	> 10	> 10	1 to 10 (≈ 1.98 to 19.8 µM)	1 to 10 (≈ 1.98 to 19.8 µM)	–	–	–	–	–	–
COc1ccc(NC(=O)C(=O)c2c(C)c(-c3ccccc3)c3ccccn23)cc1 [Example 6, N-(4-methoxy-phenyl)-2-(2-methyl-1-phenyl-indolizin-3-yl)-2-oxo-acetamide]	> 10	> 10	> 10	> 10	> 10	> 10	–	–	–	–	–	–

From patent US20110183969A1, “ANTIFUNGAL COMBINATION THERAPY” (priority 2008, published 2011)
